{"source": "ChEMBL document CHEMBL3758137", "about": "(Eur J Med Chem, 2016)", "key": {"[1]": {"target": "Receptor tyrosine-protein kinase erbB-2 (Homo sapiens, UniProt P04626)", "sequence (P04626 whole entry)": "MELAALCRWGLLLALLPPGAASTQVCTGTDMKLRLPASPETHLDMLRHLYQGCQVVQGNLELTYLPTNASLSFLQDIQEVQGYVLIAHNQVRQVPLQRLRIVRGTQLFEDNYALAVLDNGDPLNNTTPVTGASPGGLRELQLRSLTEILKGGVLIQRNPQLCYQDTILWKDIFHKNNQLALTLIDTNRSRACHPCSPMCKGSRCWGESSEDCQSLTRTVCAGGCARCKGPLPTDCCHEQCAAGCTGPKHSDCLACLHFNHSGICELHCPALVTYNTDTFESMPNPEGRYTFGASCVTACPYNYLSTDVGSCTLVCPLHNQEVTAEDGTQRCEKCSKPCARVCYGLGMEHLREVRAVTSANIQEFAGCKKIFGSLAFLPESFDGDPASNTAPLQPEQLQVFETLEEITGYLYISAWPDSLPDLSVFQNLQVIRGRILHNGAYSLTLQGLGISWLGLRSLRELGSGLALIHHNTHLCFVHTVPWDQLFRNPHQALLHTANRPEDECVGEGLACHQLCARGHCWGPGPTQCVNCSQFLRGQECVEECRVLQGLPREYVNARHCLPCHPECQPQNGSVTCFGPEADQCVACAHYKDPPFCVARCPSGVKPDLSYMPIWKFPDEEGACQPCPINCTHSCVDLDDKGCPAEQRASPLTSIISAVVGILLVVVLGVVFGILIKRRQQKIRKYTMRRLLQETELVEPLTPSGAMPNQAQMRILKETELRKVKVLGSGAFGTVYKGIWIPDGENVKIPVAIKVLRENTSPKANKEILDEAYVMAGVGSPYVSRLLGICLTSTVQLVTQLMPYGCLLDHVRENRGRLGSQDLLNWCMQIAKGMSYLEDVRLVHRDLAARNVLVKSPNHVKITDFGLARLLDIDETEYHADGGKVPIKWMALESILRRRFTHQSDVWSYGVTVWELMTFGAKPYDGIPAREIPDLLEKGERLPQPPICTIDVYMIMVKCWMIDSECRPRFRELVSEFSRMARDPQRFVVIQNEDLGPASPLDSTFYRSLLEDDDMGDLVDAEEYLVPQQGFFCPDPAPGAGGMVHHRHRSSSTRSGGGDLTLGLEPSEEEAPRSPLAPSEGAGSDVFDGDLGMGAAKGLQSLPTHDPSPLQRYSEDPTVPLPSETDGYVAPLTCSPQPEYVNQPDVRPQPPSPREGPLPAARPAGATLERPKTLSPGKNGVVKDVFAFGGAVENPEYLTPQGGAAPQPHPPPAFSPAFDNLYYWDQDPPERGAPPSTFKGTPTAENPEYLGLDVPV", "test": "Inhibition of recombinant human ErbB2 using poly (Glu,Tyr)4:1 as substrate after 60 mins by ELISA"}, "[2]": {"test": "Apparent permeability from basolateral to apical side in human Caco2 cells after 35 to 95 mins by LC-MS/MS analysis", "assay_type": "ADME, cell-based", "conditions": "Caco-2"}, "[3]": {"test": "Efflux ratio of apparent permeability from basolateral to apical side over apical to basolateral side in human Caco2 cells after 35 to 95 mins by LC-MS/MS analysis", "assay_type": "ADME, cell-based", "conditions": "Caco-2"}, "[4]": {"target": "Fibroblast growth factor receptor 1 (Homo sapiens, UniProt P11362)", "test": "Inhibition of recombinant human FGFR1 using poly (Glu,Tyr)4:1 as substrate after 60 mins by ELISA"}, "Ephrin type-A receptor 2": {"target": "Ephrin type-A receptor 2 (Homo sapiens, UniProt P29317)", "sequence (P29317 whole entry)": "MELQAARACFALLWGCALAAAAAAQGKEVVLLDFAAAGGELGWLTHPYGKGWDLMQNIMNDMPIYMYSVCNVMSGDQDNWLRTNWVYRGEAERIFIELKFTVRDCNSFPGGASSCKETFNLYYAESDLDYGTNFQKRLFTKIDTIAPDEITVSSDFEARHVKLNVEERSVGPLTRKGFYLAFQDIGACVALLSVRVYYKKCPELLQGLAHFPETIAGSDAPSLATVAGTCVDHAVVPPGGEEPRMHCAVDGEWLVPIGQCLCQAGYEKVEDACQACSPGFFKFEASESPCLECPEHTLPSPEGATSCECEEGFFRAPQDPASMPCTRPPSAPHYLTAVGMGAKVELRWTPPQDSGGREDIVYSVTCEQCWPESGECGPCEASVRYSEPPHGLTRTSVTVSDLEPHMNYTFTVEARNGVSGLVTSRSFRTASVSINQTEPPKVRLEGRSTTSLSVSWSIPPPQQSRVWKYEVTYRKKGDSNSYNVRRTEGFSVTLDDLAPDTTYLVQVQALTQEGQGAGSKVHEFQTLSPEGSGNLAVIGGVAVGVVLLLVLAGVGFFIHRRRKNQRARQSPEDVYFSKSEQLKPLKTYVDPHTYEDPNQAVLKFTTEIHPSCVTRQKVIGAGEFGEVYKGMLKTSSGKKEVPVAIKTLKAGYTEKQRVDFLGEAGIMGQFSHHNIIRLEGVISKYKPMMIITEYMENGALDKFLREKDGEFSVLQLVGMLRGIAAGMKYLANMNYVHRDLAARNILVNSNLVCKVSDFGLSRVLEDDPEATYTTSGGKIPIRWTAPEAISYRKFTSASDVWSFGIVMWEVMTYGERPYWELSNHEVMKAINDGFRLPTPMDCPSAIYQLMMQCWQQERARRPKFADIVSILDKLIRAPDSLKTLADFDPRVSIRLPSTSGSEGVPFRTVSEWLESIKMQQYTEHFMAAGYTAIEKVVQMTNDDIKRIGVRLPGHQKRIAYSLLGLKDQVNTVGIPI", "test": "Inhibition of recombinant human EPH-A2 using poly (Glu,Tyr)4:1 as substrate after 60 mins by ELISA"}, "[5]": {"target": "Platelet-derived growth factor receptor alpha (Homo sapiens, UniProt P16234)", "sequence (P16234 whole entry)": "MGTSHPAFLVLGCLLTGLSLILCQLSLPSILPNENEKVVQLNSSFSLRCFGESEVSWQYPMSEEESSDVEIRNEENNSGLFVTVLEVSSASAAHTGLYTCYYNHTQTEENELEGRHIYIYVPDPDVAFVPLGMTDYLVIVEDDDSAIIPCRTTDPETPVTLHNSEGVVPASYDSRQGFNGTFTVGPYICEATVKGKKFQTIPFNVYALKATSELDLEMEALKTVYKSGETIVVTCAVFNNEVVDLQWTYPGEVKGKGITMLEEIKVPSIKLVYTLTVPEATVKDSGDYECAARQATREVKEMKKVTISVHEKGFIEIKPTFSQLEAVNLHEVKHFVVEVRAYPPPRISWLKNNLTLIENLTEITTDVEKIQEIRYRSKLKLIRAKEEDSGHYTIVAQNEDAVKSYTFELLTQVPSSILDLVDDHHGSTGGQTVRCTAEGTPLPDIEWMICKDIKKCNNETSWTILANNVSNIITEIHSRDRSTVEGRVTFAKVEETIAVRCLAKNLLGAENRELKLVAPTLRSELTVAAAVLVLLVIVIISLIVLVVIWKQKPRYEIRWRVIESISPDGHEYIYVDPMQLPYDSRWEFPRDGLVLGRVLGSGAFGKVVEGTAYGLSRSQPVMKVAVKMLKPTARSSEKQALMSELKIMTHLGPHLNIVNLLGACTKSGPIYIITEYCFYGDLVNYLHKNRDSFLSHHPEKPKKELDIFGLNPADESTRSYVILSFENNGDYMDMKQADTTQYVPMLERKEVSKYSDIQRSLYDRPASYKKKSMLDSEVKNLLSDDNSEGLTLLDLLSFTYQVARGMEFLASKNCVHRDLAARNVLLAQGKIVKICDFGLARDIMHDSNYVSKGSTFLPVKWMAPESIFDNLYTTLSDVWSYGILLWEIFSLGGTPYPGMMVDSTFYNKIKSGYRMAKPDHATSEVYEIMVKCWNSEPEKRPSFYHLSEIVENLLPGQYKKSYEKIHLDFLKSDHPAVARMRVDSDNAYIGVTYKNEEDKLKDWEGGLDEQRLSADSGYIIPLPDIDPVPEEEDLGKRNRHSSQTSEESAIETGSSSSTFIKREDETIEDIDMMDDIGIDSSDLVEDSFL", "test": "Inhibition of recombinant human PDGFR-alpha using poly (Glu,Tyr)4:1 as substrate after 60 mins by ELISA"}, "[6]": {"test": "Antitumor activity against human EBC1 cells xenografted in nude mouse assessed as tumor growth inhibition at 5 mg/kg, po qd administered for 21 days relative to control", "assay_type": "functional", "conditions": "EBC-1, po, 504 h, read-out: TGI"}, "[7]": {"target": "Proto-oncogene tyrosine-protein kinase Src (Homo sapiens, UniProt P12931)", "sequence (P12931 2-536 limits assumed)": "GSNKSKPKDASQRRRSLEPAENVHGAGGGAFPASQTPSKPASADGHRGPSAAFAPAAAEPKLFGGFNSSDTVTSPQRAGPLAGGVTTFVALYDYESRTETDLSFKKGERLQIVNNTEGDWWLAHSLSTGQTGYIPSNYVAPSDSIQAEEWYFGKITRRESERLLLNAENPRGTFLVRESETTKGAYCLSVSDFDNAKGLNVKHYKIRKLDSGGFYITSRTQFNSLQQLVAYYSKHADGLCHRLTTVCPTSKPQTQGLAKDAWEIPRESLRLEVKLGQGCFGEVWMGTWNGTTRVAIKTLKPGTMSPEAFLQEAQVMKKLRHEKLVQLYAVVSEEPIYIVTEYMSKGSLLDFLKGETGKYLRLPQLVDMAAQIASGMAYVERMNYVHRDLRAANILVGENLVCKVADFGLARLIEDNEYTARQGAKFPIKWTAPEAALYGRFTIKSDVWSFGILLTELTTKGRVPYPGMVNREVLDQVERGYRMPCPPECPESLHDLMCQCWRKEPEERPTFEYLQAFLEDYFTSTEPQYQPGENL", "test": "Inhibition of recombinant human c-Src using poly (Glu,Tyr)4:1 as substrate after 60 mins by ELISA"}, "[8]": {"target": "Epidermal growth factor receptor (Homo sapiens, UniProt P00533)", "sequence (P00533 whole entry)": "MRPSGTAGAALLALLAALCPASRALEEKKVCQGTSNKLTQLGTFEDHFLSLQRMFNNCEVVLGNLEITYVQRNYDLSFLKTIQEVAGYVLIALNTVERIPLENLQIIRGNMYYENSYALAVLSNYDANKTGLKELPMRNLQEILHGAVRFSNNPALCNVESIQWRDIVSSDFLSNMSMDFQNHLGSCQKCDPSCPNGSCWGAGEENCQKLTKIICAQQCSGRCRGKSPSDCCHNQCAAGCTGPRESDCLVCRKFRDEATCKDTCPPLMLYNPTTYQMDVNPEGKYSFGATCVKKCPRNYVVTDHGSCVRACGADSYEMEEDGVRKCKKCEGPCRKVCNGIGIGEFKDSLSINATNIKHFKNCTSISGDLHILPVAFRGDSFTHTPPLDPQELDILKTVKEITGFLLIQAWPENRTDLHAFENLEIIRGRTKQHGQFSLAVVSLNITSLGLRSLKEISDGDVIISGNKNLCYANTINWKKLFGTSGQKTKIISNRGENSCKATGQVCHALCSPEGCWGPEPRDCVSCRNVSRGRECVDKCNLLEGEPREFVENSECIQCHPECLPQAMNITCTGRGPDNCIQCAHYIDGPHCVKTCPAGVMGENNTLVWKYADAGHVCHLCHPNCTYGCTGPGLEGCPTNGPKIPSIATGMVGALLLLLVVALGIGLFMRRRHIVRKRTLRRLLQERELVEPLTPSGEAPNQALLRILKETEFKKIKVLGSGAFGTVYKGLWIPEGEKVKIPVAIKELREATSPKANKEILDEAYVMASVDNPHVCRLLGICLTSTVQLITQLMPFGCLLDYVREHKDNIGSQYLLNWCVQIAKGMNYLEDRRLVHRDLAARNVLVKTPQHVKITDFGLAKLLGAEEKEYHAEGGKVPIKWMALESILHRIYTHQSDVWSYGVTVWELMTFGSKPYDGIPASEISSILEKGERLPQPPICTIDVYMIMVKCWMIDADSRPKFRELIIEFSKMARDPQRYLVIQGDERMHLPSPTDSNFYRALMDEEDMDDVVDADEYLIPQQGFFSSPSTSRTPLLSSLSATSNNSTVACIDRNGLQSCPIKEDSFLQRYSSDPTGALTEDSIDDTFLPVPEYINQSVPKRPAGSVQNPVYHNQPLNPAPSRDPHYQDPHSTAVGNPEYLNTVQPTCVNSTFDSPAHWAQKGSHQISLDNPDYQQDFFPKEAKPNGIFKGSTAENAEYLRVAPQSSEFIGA", "test": "Inhibition of recombinant human EGFR using poly (Glu,Tyr)4:1 as substrate after 60 mins by ELISA"}}}
{"smiles": "Cn1cc(-c2cnc(Nc3cccc(Cn4nc(-c5cnn(C)c5)ccc4=O)c3)nc2)cn1", "values": [{"measurement": "IC50", "setting": "[1]", "result": "> 1000", "unit": "nM"}, {"measurement": "Papp B→A", "setting": "[2]", "result": 22.8, "unit": "×10⁻⁶ cm/s"}, {"measurement": "efflux ratio", "setting": "[3]", "result": 1.3}, {"measurement": "IC50", "setting": "[4]", "result": "> 1000", "unit": "nM"}, {"measurement": "IC50", "setting": "Ephrin type-A receptor 2", "result": "> 1000", "unit": "nM"}, {"measurement": "IC50", "setting": "[5]", "result": "> 1000", "unit": "nM"}, {"measurement": "inhibition in vivo at 5 mg/kg", "setting": "[6]", "result": 42.5, "unit": "%"}, {"measurement": "IC50", "setting": "[7]", "result": "> 1000", "unit": "nM"}, {"measurement": "IC50", "setting": "[8]", "result": "> 1000", "unit": "nM"}]}
